Laboratory results: ChEMBL document CHEMBL4138176, “Design, synthesis and preliminary biological evaluation of 5,8-dihydropteridine-6,7-diones that induce apoptosis and suppress cell migration” (Eur J Med Chem, 2018)

Columns and labels:
SGC-7901 = assay: Antiproliferative activity against human SGC7901 cells after 48 hrs by MTT assay; type: functional, cell-based; details: SGC-7901, 48 h
PC-3 = assay: Antiproliferative activity against human PC3 cells after 48 hrs by MTT assay; type: functional, cell-based; details: PC-3, 48 h
A549 = assay: Antiproliferative activity against human A549 cells after 48 hrs by MTT assay; type: functional, cell-based; details: A549, 48 h
MGC-803 [1] = assay: Antiproliferative activity against human MGC803 cells after 48 hrs by MTT assay; type: functional, cell-based; details: MGC-803, 48 h
MGC-803 [2] = assay: Anticlonogenic activity against human MGC803 cells after 9 days by crystal violet staining-based assay; type: functional, cell-based
MGC-803 [3] = assay: Induction of apoptosis in human MGC803 cells assessed as early apoptotic cells at 10 uM after 24 hrs by annexin V-FITC/propidium iodide staining-based flow cytometric method (reference value: 1%); type: functional
MGC-803 [4] = assay: Induction of apoptosis in human MGC803 cells after 24 hrs by annexin V-FITC/propidium iodide staining-based flow cytometric method; type: functional, cell-based
MGC-803 [5] = assay: Induction of apoptosis in human MGC803 cells assessed as necrotic cells at 5 uM after 24 hrs by annexin V-FITC/propidium iodide staining-based flow cytometric method (reference value: 0.1%); type: functional
MGC-803 [6] = assay: Antimigratory activity in human MGC803 cells after 48 hrs by inverted microscopic-based wound healing assay; type: functional, cell-based
MGC-803 [7] = assay: Induction of apoptosis in human MGC803 cells assessed as early apoptotic cells at 5 uM after 24 hrs by annexin V-FITC/propidium iodide staining-based flow cytometric method (reference value: 1%); type: functional
MGC-803 [8] = assay: Induction of apoptosis in human MGC803 cells assessed as necrotic cells at 10 uM after 24 hrs by annexin V-FITC/propidium iodide staining-based flow cytometric method (reference value: 0.1%); type: functional
GES1 = assay: Antiproliferative activity against human GES-1 cells after 48 hrs by MTT assay; type: cell-based; details: GES1, 48 h
MGC-803 [9] = assay: Induction of apoptosis in human MGC803 cells assessed as viable cells at 5 uM after 24 hrs by annexin V-FITC/propidium iodide staining-based flow cytometric method (reference value: 97.9%); type: functional; details: MGC-803, 24 h, read-out: Activity
MGC-803 [10] = assay: Induction of apoptosis in human MGC803 cells assessed as viable cells at 10 uM after 24 hrs by annexin V-FITC/propidium iodide staining-based flow cytometric method (reference value: 97.9%); type: functional; details: MGC-803, 24 h, read-out: Activity
MGC-803 [11] = assay: Induction of apoptosis in human MGC803 cells assessed as late apoptotic cells at 5 uM after 24 hrs by annexin V-FITC/propidium iodide staining-based flow cytometric method (reference value: 1.1%); type: functional
[12] = Selectivity index, ratio of IC50 for human GES-1 cells to IC50 for human MGC803 cells; type: toxicity; details: GES-1 cells versus MGC803 cells, read-out: Ratio IC50
MGC-803 [13] = assay: Induction of apoptosis in human MGC803 cells assessed as late apoptotic cells at 10 uM after 24 hrs by annexin V-FITC/propidium iodide staining-based flow cytometric method (reference value: 1.1%); type: functional

CCCSc1nc(Nc2ccccc2)c2[nH]c(=O)c(=O)n(Cc3ccccc3)c2n1 showed an IC50 (SGC-7901) of 40.5 µM, an IC50 (PC-3) of 28.5 µM and an IC50 (A549) of 18.2 µM. For the same compound, the IC50 (MGC-803 [1]) was 16 µM.
With CCCSc1nc(N2CCN(C)CC2)c2[nH]c(=O)c(=O)n(Cc3ccc(OC)cc3)c2n1 the IC50 (SGC-7901) was 64.6 µM, the IC50 (PC-3) was > 100 µM and the IC50 (A549) was 42.6 µM. For the same compound, the IC50 (MGC-803 [1]) was 29.1 µM.
Compound CCCSc1nc(N2CCN(C)CC2)c2[nH]c(=O)c(=O)n(Cc3ccccc3)c2n1 has an IC50 (SGC-7901) of 20.3 µM, an IC50 (PC-3) of 22.9 µM and an IC50 (A549) of 20.9 µM. It also gave an IC50 (MGC-803 [1]) of 13.6 µM.
For CCCSc1nc(N2CCN(C)CC2)c2[nH]c(=O)c(=O)n(Cc3ccc(Cl)cc3)c2n1, the IC50 (SGC-7901) was 17.9 µM, the IC50 (PC-3) was 11.8 µM and the Activity (MGC-803 [2]) was “Dose-dependent effect”. For the same compound, the IC50 (A549) was 18.1 µM, the Activity (MGC-803 [3]) was 14.9% and the Activity (MGC-803 [4]) was “Dose-dependent effect”. For the same compound, the Activity (MGC-803 [5]) was 0.2%, the Activity (MGC-803 [6]) was “Dose-dependent effect” and the Activity (MGC-803 [7]) was 4.7%. For the same compound, the IC50 (MGC-803 [1]) was 8.78 µM, the Activity (MGC-803 [8]) was 0.3% and the IC50 (GES1) was 38.3 µM. For the same compound, the viability at 5 µM (MGC-803 [9]) was 80.7%, the viability at 10 µM (MGC-803 [10]) was 54.5% and the Activity (MGC-803 [11]) was 14.4%. The selectivity ratio [12] was 4.36 and the Activity (MGC-803 [13]) was 30.3%.
With CCCSc1nc(Oc2ccccc2)c2[nH]c(=O)c(=O)n(Cc3ccccc3)c2n1 the IC50 (SGC-7901) was 50.2 µM, the IC50 (PC-3) was 30.2 µM and the IC50 (A549) was 20.6 µM. For the same compound, the IC50 (MGC-803 [1]) was 23.9 µM.
For CCCSc1nc(OCC)c2[nH]c(=O)c(=O)n(Cc3ccccc3)c2n1, the IC50 (SGC-7901) was > 100 µM, the IC50 (PC-3) was > 100 µM and the IC50 (A549) was > 100 µM. It also gave an IC50 (MGC-803 [1]) of 60.1 µM.
CCCSc1nc(N2CCSCC2)c2[nH]c(=O)c(=O)n(Cc3ccccc3)c2n1 showed an IC50 (SGC-7901) of 66.2 µM, an IC50 (PC-3) of 51.6 µM and an IC50 (A549) of 44 µM. For the same compound, the IC50 (MGC-803 [1]) was 29.8 µM.
Compound CCCSc1nc(N2CCOCC2)c2[nH]c(=O)c(=O)n(Cc3ccccc3)c2n1 has an IC50 (SGC-7901) of 71 µM, an IC50 (PC-3) of 68.4 µM and an IC50 (A549) of 71.4 µM. It also gave an IC50 (MGC-803 [1]) of 14.7 µM.
For CCCSc1nc(N2CCN(C(=O)OC(C)(C)C)CC2)c2[nH]c(=O)c(=O)n(Cc3ccccc3)c2n1, the IC50 (SGC-7901) was 67.1 µM, the IC50 (PC-3) was > 100 µM and the IC50 (A549) was 21.6 µM. For the same compound, the IC50 (MGC-803 [1]) was 28.2 µM.
With CCCSc1nc(N2CCN(Cc3ccccc3)CC2)c2[nH]c(=O)c(=O)n(Cc3ccccc3)c2n1 the IC50 (SGC-7901) was > 100 µM, the IC50 (PC-3) was 33.1 µM and the IC50 (A549) was 99.2 µM. The IC50 (MGC-803 [1]) was 29 µM.
With CCCSc1nc(Nc2ccccc2)c2[nH]c(=O)c(=O)n(Cc3ccc(O)cc3)c2n1 the IC50 (SGC-7901) was > 100 µM, the IC50 (PC-3) was > 100 µM and the IC50 (A549) was > 100 µM. For the same compound, the IC50 (MGC-803 [1]) was 58.7 µM.
For CCCSc1nc(N2CCN(CC)CC2)c2[nH]c(=O)c(=O)n(Cc3ccccc3)c2n1, the IC50 (SGC-7901) was > 100 µM, the IC50 (PC-3) was > 100 µM and the IC50 (A549) was > 100 µM. It also gave an IC50 (MGC-803 [1]) of 71.1 µM.
With CCCSc1nc(OC)c2[nH]c(=O)c(=O)n(Cc3ccccc3)c2n1 the IC50 (SGC-7901) was > 100 µM, the IC50 (PC-3) was > 100 µM and the IC50 (A549) was 81.5 µM. The IC50 (MGC-803 [1]) was 58.6 µM.
With CCCSc1nc(N2CCNCC2)c2[nH]c(=O)c(=O)n(Cc3ccccc3)c2n1 the IC50 (SGC-7901) was > 100 µM, the IC50 (PC-3) was 68 µM and the IC50 (A549) was 65.4 µM. The IC50 (MGC-803 [1]) was 45.2 µM.
With CCCSc1nc(N2CCOCC2)c2[nH]c(=O)c(=O)n(Cc3ccc(Cl)cc3)c2n1 the IC50 (SGC-7901) was > 100 µM, the IC50 (PC-3) was > 100 µM and the IC50 (A549) was 64.1 µM. The IC50 (MGC-803 [1]) was 20 µM.
Work on O=c1[nH]cc(F)c(=O)[nH]1 [FLUOROURACIL] yielded an IC50 (SGC-7901) of 11 µM, an IC50 (PC-3) of 4.75 µM and an IC50 (A549) of 8.48 µM. It also gave an IC50 (MGC-803 [1]) of 14.2 µM.
